Assay results taken from PMC8839210, “Identification of Inhibitory Activities of Dietary Flavonoids against URAT1, a Renal Urate Re-Absorber: In Vitro Screening and Fractional Approach Focused on Rooibos Leaves” (Nutrients, 2022).

Legend:
URAT1 [1] = molecular target: T1, URAT1 (Homo sapiens, UniProt Q96S37); assay: Urate transport assay using URAT1-expressing 293A cells; type: cell-based; conditions: for remaining activity at 100 µM: 293A, authentic chemical 100 μM, mean ± S.D., n = 3, read-out: URAT1-mediated urate transport activity, % of the control; for remaining activity at 100 µM / IC50: 20 s; for IC50: [14C]-urate 5 μM, 37 °C, URAT1-expressing 293A cells, read-out: IC50 against URAT1-mediated urate transport
T1 construct: The complete human URAT1 cDNA in pEGFP-C1; expressed in transfected cells; host or cells: 293A cells (human embryonic kidney 293-derived), transient transfection with PEI-MAX
T1 sequence (Q96S37 1-553): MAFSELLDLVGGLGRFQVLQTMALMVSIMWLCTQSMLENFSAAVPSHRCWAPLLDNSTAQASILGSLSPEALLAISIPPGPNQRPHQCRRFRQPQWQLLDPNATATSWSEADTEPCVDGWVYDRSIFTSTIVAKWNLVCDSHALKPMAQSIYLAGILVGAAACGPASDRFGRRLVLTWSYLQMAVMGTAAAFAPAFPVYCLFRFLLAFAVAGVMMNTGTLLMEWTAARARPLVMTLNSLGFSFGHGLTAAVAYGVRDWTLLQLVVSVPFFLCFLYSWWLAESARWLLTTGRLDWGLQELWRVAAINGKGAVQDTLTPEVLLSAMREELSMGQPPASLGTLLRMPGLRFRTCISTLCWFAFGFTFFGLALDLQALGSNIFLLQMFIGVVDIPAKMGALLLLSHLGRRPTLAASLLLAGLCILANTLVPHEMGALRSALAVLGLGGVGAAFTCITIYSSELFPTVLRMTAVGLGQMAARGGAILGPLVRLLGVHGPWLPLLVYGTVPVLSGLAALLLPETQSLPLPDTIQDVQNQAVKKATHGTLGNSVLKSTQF
Method: After 24 h, each vector was transiently transfected into the cells (1 μg of plasmid/5 μL of PEI-MAX/well). At 24 h after transfection, the culture medium was replaced with fresh one.
Briefly, 48 h after plasmid transfection, cells were washed twice with Buffer T2 and then pre-incubated in Buffer T2 for 15 min at 37 °C. Then, the buffer was exchanged with pre-warmed fresh Buffer T2 containing radiolabeled urate ([8-^14C]-uric acid; final concentration, 5 μM) with or without the test compound at the indicated concentrations (0, 0.3, 1, 3, 10, 30, 100, 300, or 500 μM); the cells were further incubated for 20 s at 37 °C; as vehicle control, 1% DMSO was used in this study. Subsequently, the cells were washed five times with ice-cold Buffer T2; then, the cells were lysed with 0.2 M NaOH solution (500 μL/well) on ice. The resulting lysates were neutralized with 1 M HCl solution (100 μL/well). […] Using a Pierce BCA Protein Assay Kit (Thermo Fisher Scientific, Kanagawa, Japan), protein concentration was determined. Urate transport activity was calculated as the incorporated clearance (μL/mg protein/min): (incorporated level of urate [DPM/mg protein/min]/urate level in the incubation mixture [DPM/μL]). URAT1-dependent urate transport activity was calculated by subtracting the urate transport activity of mock (control) cells from that of URAT1-expressing cells.
Urate uptake was examined in the presence of several concentrations of each test compound to determine their IC50 values. Then, URAT1-mediated transport activities were expressed as a percentage of the control (100%).

URAT1 [2] = molecular target: T1, URAT1; conditions: cited from earlier work
[3] = test system: xanthine oxidoreductase (XOD); conditions: cited from earlier work
[4] = parameters: method as in PMID 26785820; conditions: healthy males, four weeks, cited from earlier work

Row | SMILES | remaining activity at 100 µM (URAT1 [1]) [%] | IC50 (URAT1 [1]) [µM] | also measured
1 | O=c1c(O)c(-c2ccc(O)c(O)c2)oc2cc(O)c(O)c(O)c12 [Quercetagetin] | < 50 | 18.4 | 
2 | O=c1c(O)c(-c2ccc(O)c(O)c2)oc2cc(O)ccc12 [Fisetin] | < 50 | 7.5 | 
3 | O=c1c(-c2ccc(O)cc2)coc2cc(O)cc(O)c12 [Genistein] | < 50 | 101 | 
4 | O=c1c(O)c(-c2ccc(O)cc2O)oc2cc(O)cc(O)c12 [morin, Morin] | < 50 |  | URAT1 inhibition (in words) (URAT1 [2]; previous report): URAT1 inhibitor
5 | O=C(CCc1ccc(O)c(O)c1)c1c(O)cc(O)c([C@@H]2O[C@H](CO)[C@@H](O)[C@H](O)[C@H]2O)c1O [aspalathin, reference compound] |  |  | XOD inhibition (in words) [3]: inhibits XOD
6 | O=c1c(O)c(-c2ccc(O)c(O)c2)oc2cc(O)cc(O)c12 [Quercetin] |  | 12.6 | XOD inhibition (in words) [3]: inhibitory activity; Plasma uric acid concentration, mean difference ([4]; 500 mg quercetin daily as single tablet, mean plasma uric acid 5.5 mg/dL): -0.45 mg/dL; Urinary uric acid output over 24 h (24 h-UUA), before vs after treatment ([4]; 500 mg quercetin daily): no significant difference; Effect on URAT1-mediated urate transport (in words) (URAT1 [1]; 300 μM, experimentally maximum concentration): inhibited URAT1
7 | O=C1C[C@@H](c2ccc(O)cc2)Oc2cc(O)cc(O)c21 [naringenin, reference compound] |  |  | URAT1-mediated urate transport activity, % of the control (URAT1 [2]; 100 μM, previous study of the authors): 17.9 ± 7.7%
8 | O=c1cc(-c2ccc(O)c(O)c2)oc2cc(O)cc(O)c12 [Luteolin] | < 50 | 25.7 | 
9 | O=C(/C=C/c1ccc(O)cc1)c1c(O)cc(O)cc1O [naringenin chalcone, Naringenin chalcone] | < 50 |  | 
10 | O=c1c(O)c(-c2cc(O)c(O)c(O)c2)oc2cc(O)cc(O)c12 [Myricetin] | < 50 | 18.1 | 
11 | O=c1c(O)c(-c2ccc(O)c(O)c2)oc2c(O)c(O)cc(O)c12 [Gossypetin] | < 50 | 31.3 | 
